Results as given in patent US10758466B2, “Powder-based cosmetic compositions containing pelargonic acid esters” (Novamont S.p.A., priority 2015, dated 2020).

What was measured:
[1] = UV filters dispersion: dispersibility of solid UV filter in ester oils; type: physicochemical; set-up: key: D=homogeneous dispersion; S=sediment deposit; details: 25° C.; for Filters dispersion t0 1%: 1% TiO2, storage 0 hours; for Filters dispersion t24 1%: 1% TiO2, storage 24 hours; for Filters dispersion t0 10%: 10% TiO2, storage 0 hours; for Filters dispersion t24 10%: 10% TiO2, storage 24 hours
Procedure: The dispersibility of a solid UV filter in different ester oils was tested using Titania (TiO2, commercially available as Titanio Biossido Anatasio from A.C.E.F.). Various ratios of solute/solvent (1% and 10% TiO2) were prepared under stiffing at 70° C. for 30 minutes. The dispersions were then observed after a storage period of 0 hours (t0) and 24 hours (t24) at ambient temperature (25° C.) to check for the formation of any sediment deposit. Results for each ester are shown in the table below (D=homogeneous dispersion; S=sediment deposit).

[2] = Pigments dispersion: wet point and flow point of ester oil; type: physicochemical; details: for Fp: amount of ester oil needed to reach the flow point; for Fp / Wp: grams per 100 g of pigment; for Wp: amount of ester oil needed to reach the wet point
Excerpt: Black Iron Oxide particles (CI77499, commercially available as YPC335200 from Yipin) were dispersed in each of the ester oils of the present invention and in ester oil commonly used as cosmetic ingredients. Each sample of powder particles was wetted by the dropwise addition of one ester oil and then vigorously blended using a spatula until the wet point and the flow point were reached.
The wet point is defined as the minimum volume of dispersant solution to produce a soft coherent mass; the further minimum addition of dispersant solution to produce flow or falling off of the homogeneous mass from the vertical blade of a horizontally held spatula determines the flow point.
The amounts of dispersant solution (i.e. ester oil) needed to reach the wet point (Wp) and the flow point (Fp) were recorded and reported in the table below, expressed in grams per 100 g of pigment.

SMILES | Filters dispersion t0 1% [1] | Filters dispersion t24 1% [1] | Filters dispersion t0 10% [1] | Filters dispersion t24 10% [1] | Fp [2] [g] | Wp [2] [g] | less solvent required on the final composition ([2]; from Fp close to Wp, compared with commonly used ester oils)
CCCCCCCCC(=O)OCC(COC(=O)CCCCCCCC)OC(=O)CCCCCCCC [Glycerol tripelargonate] | D | D | D | S/D | 100.00 | 60.00 | about 30%
CCCCCCCCC(=O)OCC(C)(C)COC(=O)CCCCCCCC [Neopentyl glycol dipelargonate] | D | S/D | D | S/D | 166.00 | 61.00 | 
CCCCCCCCC(=O)OCC(COC(=O)CCCCCCCC)(COC(=O)CCCCCCCC)COC(=O)CCCCCCCC [Pentaerythritol tetrapelargonate] | D | D | D | D | 132.00 | 62.00 | 
CC(C)CCCCCCOC(=O)CCCCCC(C)C [Isononyl Isononanoate, reference compound] | D | S | D | S | 145.00 | 50.00 | 
